Biological target: T1, SUMO (Homo sapiens, UniProt Q9UBT2)
T1 sequence (Q9UBT2 1-640): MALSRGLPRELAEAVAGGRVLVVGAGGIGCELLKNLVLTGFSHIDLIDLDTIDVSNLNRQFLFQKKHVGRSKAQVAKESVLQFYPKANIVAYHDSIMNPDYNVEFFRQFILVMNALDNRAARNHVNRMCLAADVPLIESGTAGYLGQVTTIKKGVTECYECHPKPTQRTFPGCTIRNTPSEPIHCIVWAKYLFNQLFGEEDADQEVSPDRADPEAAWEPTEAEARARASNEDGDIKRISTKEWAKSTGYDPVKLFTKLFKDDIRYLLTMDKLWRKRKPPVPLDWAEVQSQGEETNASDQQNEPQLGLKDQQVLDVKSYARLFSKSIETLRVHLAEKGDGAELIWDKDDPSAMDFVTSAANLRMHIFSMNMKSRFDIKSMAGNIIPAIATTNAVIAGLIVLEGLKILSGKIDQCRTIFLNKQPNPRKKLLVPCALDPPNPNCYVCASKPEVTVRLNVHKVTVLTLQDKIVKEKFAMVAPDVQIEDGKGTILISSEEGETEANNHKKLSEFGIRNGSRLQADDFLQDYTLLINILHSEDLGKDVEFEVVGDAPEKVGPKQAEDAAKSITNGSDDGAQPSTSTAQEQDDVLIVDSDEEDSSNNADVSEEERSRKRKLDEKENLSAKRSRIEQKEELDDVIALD
T1 sequence (Q9UBE0 1-346 partner): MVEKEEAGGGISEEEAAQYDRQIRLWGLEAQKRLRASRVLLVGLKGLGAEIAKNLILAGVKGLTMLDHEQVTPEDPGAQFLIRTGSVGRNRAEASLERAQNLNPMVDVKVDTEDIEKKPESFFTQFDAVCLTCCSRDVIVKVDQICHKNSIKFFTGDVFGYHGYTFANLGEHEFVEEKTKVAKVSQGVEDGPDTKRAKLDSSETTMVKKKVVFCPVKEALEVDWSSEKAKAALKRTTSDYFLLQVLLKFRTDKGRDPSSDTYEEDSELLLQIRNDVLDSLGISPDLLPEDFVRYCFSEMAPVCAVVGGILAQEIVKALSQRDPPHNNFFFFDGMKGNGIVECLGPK
Test: SUMO activity (Table I, biological activities)
Assay type: biochemical
Parameters: key: + (less active); ++ (active); +++ (most active)

SMILES	SUMO
COC(=O)C1=C(C(=O)NC2CCN(C)CC2)C2(C)C=CC1(C(Cc1ccccc1)Nc1ccccc1)O2 (stereo not drawn) [Compound 268]	+
CCOC(=O)C1=C(C(=O)OCC)C2(C(Nc3ccccc3)c3ccc(CN4CCOCC4)cc3)C=CC1O2 (stereo not drawn) [Compound 659]	++
COC(=O)C1=C(C(=O)OC2CCN(C)CC2)C2C=CC1(C(Cc1ccccc1)Nc1ccccc1)O2 (stereo not drawn) [Compound 286]	++
C#CCNC(=O)C1=C(C(=O)OC)C2(C(Cc3ccccc3)Nc3ccccc3)C=CC1O2 (stereo not drawn) [Compound 155]	++
COC(=O)C1=C(C(=O)NCCN(C)C)C2C=CC1(C(Cc1ccccc1Cl)Nc1ccc(F)cc1)O2 (stereo not drawn) [Compound 688]	+++
COC(=O)C1=C(C(=O)N2CCN(C)CC2)C2C=CC1(C(Cc1ccccc1)Nc1ccccc1)O2 (stereo not drawn) [Compound 164]	+
COC(=O)C1=C(C(=O)Nc2ccc(OC)cc2)C2C=CC1(C(Cc1ccccc1)Oc1ccc(F)cc1)O2 (stereo not drawn) [Compound 479]	++
COc1ccc(NC(=O)C2=C(C(=O)O)C3(C(Cc4ccccc4)Nc4ccccc4)C=CC2O3)cc1 (stereo not drawn) [Compound 175]	+
CCOC(=O)C1=C(C(=O)OCC)C2(C(Cc3ccccc3)Nc3ccccc3)C=CC1(CO)O2 (stereo not drawn) [Compound 265]	++
COC(=O)C1=C(C(=O)NCCO)C2C=CC1(C(Cc1ccccc1)Nc1ccccc1)O2 (stereo not drawn) [Compound 152]	++
COC(=O)C1=C(C(=O)OC)C2(C(Oc3ccccc3)c3ccc(CN4CCOCC4)cc3)C=CC1O2 (stereo not drawn) [Compound 495]	++
COC(=O)C1=C(C(=O)OC)C2(C(Cc3ccccc3Cl)Nc3ccc(Oc4ccccc4)cc3)C=CC1O2 (stereo not drawn) [Compound 678]	+
COC(=O)C1=C(C(=O)O)C2C=CC1(C(Cc1ccccc1)Nc1cc(F)cc(F)c1)O2 (stereo not drawn) [Compound 203]	++
COC(=O)C1=C(C(=O)OC)C2(C(Cc3ccccc3)Nc3ccccc3)C=CC1(c1ccccc1)O2 (stereo not drawn) [Compound 696]	+
COC(=O)C1=C(C(=O)OC)C2(C(Nc3ccccc3)C3CCOCC3)C=CC1O2 (stereo not drawn) [Compound 192]	++
COC(=O)C1=C(C(=O)Nc2ccc(C)c(F)c2)C2CCC1(C(Cc1ccccc1Cl)Nc1ccccc1)O2 (stereo not drawn) [Compound 692]	+
CCCNC(=O)C1=C(C(=O)OC)C2(C(Cc3ccccc3)Nc3ccccc3)C=CC1O2 (stereo not drawn) [Compound 150]	++

SMILES	SUMO
COC(=O)C1=C(C(=O)Nc2ccc(C)c(F)c2)C2C=CC1(C(Cc1ccccc1)Nc1ccc(F)cc1)O2 (stereo not drawn) [Compound 346]	++
COC(=O)C1=C(C(=O)Nc2ccc(C)c(F)c2)C2C=CC1(C(Cc1ccccc1)Oc1ccccc1)O2 (stereo not drawn) [Compound 347]	++
CCCNC(=O)C1=C(C(=O)NCCC)C2(C(Cc3ccccc3)Nc3ccccc3)C=CC1O2 (stereo not drawn) [Compound 157]	+
COC(=O)C1=C(C(=O)Nc2ccc(OC)nc2)C2C=CC1(C(Cc1ccccc1)Nc1ccccc1)O2 (stereo not drawn) [Compound 199]	++
COC(=O)C1=C(C(N)=O)C2(C)C=CC1(C(Cc1ccccc1)Nc1ccccc1)O2 (stereo not drawn) [Compound 294]	++
CCOC(=O)C1=C(C(=O)Nc2cccc(F)c2C)C2C=CC1(C(Nc1ccccc1)c1ccc(CN3CCOCC3)cc1)O2 (stereo not drawn) [Compound 603]	++
COC(=O)C1=C(C(=O)NC2CCOCC2)C2C=CC1(C(Cc1ccccc1)Nc1ccccc1)O2 (stereo not drawn) [Compound 275]	+++
COC(=O)C1=C(C(=O)OC)C2(C(Cc3ccccc3Cl)N[S@+]([O-])C(C)(C)C)CCC1O2 (stereo partly drawn) [Compound 694]	++
COC(=O)C1=C(C(=O)NC2CCN(c3ccccc3)CC2)C2C=CC1(C(Cc1ccccc1)Nc1ccccc1)O2 (stereo not drawn) [Compound 290]	+
COC(=O)C1=C(C(=O)OC)C2(C(Cc3ccccc3Cl)Nc3ccccc3)CCC1O2 (stereo not drawn) [Compound 689]	+
CCOC(=O)C1=C(C(=O)NC2CCN(C)CC2)C2(CO)C=CC1(C(Cc1ccccc1)Nc1ccccc1)O2 (stereo not drawn) [Compound 269]	++
COC(=O)C1=C(C(=O)NC2CCN(C(=O)OC(C)(C)C)CC2)C2C=CC1(C(Cc1ccccc1)Nc1cc(F)cc(F)c1)O2 (stereo not drawn) [Compound 255]	+
COC(=O)C1=C(C(=O)OC)C2(C(Nc3ccccc3)c3ccc(CN4CCOCC4)cc3)C=CC1O2 (stereo not drawn) [Compound 413]	+
COC(=O)C1=C(C(=O)OC)C2(C(Nc3ccccc3)c3cccc4ccccc34)C=CC1O2 (stereo not drawn) [Compound 637]	+++
CCOC(=O)C1=C(C(=O)OCC)C2(C(Cc3ccccc3)Nc3cc(F)cc(F)c3)C=CC1O2 (stereo not drawn) [Compound 234]	++
COC(=O)C1=C(C(=O)Nc2ccc(C)c(F)c2)C2C=CC1(C(Cc1ccccc1)Oc1cccnc1)O2 (stereo not drawn) [Compound 484]	+

Next, values leading:

SUMO	SMILES
++	COC(=O)C1=C(C(=O)OC)C2(C(Cc3ccccc3Cl)Nc3cccc(Oc4ccccc4)c3)C=CC1O2 (stereo not drawn) [Compound 672]
++	COC(=O)C1=C(C(=O)OC)C2(C(Nc3ccccc3)c3cc4ccccc4nc3Cl)C=CC1O2 (stereo not drawn) [Compound 671]
++	COC(=O)C1=C(C(=O)OC)C2(C(Cc3ccccc3Br)Nc3ccccc3)C=CC1O2 (stereo not drawn) [Compound 667]
++	COC(=O)C1=C(C(=O)OC)C2(C(Cc3ccccc3Cl)Nc3ccc(F)cc3)C=CC1O2 (stereo not drawn) [Compound 673]
++	COC(=O)C1=C(C(=O)OC)C2(C(Cc3cccc(Cl)c3)Nc3ccccc3)C=CC1O2 (stereo not drawn) [Compound 663]
++	COC(=O)C1=C(C(=O)OC)C2(C(Cc3ccc(C#N)cc3)Nc3ccccc3)C=CC1O2 (stereo not drawn) [Compound 643]
++	COC(=O)C1=C(C(=O)OC)C2(C(Cc3ccc(Br)cc3)Nc3ccccc3)C=CC1O2 (stereo not drawn) [Compound 652]
++	COC(=O)C1=C(C(=O)NC(C)C)C2C=CC1(C(Cc1ccccc1)Nc1ccccc1)O2 (stereo not drawn) [Compound 153]
+++	COC(=O)C1=C(C(=O)OC)C2(C(Cc3ccc(C)cc3)Nc3ccccc3)C=CC1O2 (stereo not drawn) [Compound 627]
+	COC(=O)C1=C(C(=O)N(C)C)C2C=CC1(C(Cc1ccccc1)Nc1ccccc1)O2 (stereo not drawn) [Compound 154]
++	COC(=O)C1=C(C(=O)OC)C2(C(Cc3ccccc3)Nc3c(F)cccc3F)C=CC1O2 (stereo not drawn) [Compound 228]
++	COC(=O)C1=C(C(=O)OC)C2(C(Cc3ccc(OCC(C)C)cc3)Nc3ccccc3)C=CC1O2 (stereo not drawn) [Compound 651]
+++	COC(=O)C1=C(C(=O)OC)C2(C(Cc3ccc(-c4cc[nH]n4)cc3)Nc3ccccc3)C=CC1O2 (stereo not drawn) [Compound 698]
++	COC(=O)C1=C(C(=O)OC)C2(C(Cc3ccc(Cl)nc3)Nc3ccccc3)C=CC1O2 (stereo not drawn) [Compound 649]
+	COC(=O)C1=C(C(=O)OC)C2(C(Cc3ccc(Nc4ccccc4)cc3)Nc3ccccc3)C=CC1O2 (stereo not drawn) [Compound 683]
+	COC(=O)C1=C(C(=O)OC)C2(C(Cc3ccc(NC(C)C)cc3)Nc3ccccc3)C=CC1O2 (stereo not drawn) [Compound 684]
++	COC(=O)C1=C(C(=O)OC)C2(C(Cc3ccc(CC4CCOCC4)cc3)Nc3ccccc3)C=CC1O2 (stereo not drawn) [Compound 676]
++	COC(=O)C1=C(C(=O)OC)C2(C(Cc3ccc(CCO)cc3)Nc3ccccc3)C=CC1O2 (stereo not drawn) [Compound 664]
++	COC(=O)C1=C(C(=O)OC)C2(C(Cc3ccc(C4CC4)cc3)Nc3ccccc3)C=CC1O2 (stereo not drawn) [Compound 693]
+	COC(=O)C1=C(C(=O)OC)C2(C(Cc3ccccc3Cl)Oc3ccccc3)C=CC1O2 (stereo not drawn) [Compound 687]
++	COC(=O)C1=C(C(=O)OC)C2(C(Cc3ccccc3C#N)Nc3ccccc3)C=CC1O2 (stereo not drawn) [Compound 660]
++	COC(=O)C1=C(C(=O)OC)C2(C(Cc3ccc(-c4ccccc4)cc3)Nc3ccccc3)C=CC1O2 (stereo not drawn) [Compound 677]
+++	COC(=O)C1=C(C(=O)OC)C2(C(Cc3ccc(Cl)cc3Cl)Nc3ccccc3)C=CC1O2 (stereo not drawn) [Compound 641]
++	COC(=O)C1=C(C(=O)OC)C2(C(Cc3c(Cl)cccc3Cl)Nc3ccccc3)C=CC1O2 (stereo not drawn) [Compound 657]
+++	COC(=O)C1=C(C(=O)OC)C2(C(Cc3ccc(Cl)c(Cl)c3)Nc3ccccc3)C=CC1O2 (stereo not drawn) [Compound 642]
++	COC(=O)C1=C(C(=O)OC)C2(C(Cc3ccccc3C(F)(F)F)Nc3ccccc3)C=CC1O2 (stereo not drawn) [Compound 658]
+	COC(=O)C1=C(C(=O)OC)C2(C(Cc3cccc(-c4ccccc4)c3)Nc3ccccc3)C=CC1O2 (stereo not drawn) [Compound 682]
++	CNC(=O)Cc1ccc(CC(Nc2ccccc2)C23C=CC(O2)C(C(=O)OC)=C3C(=O)OC)cc1 (stereo not drawn) [Compound 665]
++	CCOc1ccc(CC(Nc2ccccc2)C23C=CC(O2)C(C(=O)OC)=C3C(=O)OC)cc1 (stereo not drawn) [Compound 644]
++	C=CCC(Nc1ccccc1)C12C=CC(O1)C(C(=O)OC)=C2C(=O)OC (stereo not drawn) [Compound 407]
